Data on 11 molecules can be found in patent EP4603105A1, “PHARMACEUTICAL COMPOSITION CONTAINING CYCLIC COMPOUND HAVING SELECTIVE KRAS INHIBITORY EFFECT AGAINST HRAS AND NRAS” (CHUGAI SEIYAKU KABUSHIKI KAISHA, priority 2022, dated 2024).

*1 amine or outer side, *2 acyl side, *3 side chain or, on linkers, in order; H or OH if unused. Where a SMILES comes first, the peptide text is derived from it. Bridges are numbered along the chain shown (N, C = ends). [ ]: non-standard residue; d: D form. The star is where a group is joined. hPhe(3,5-F2-4-CF3) = N[C@@H](CCc1cc(F)c(C(F)(F)F)c(F)c1)C(=O)O; hPhe(3-Cl-4-CF3) = N[C@@H](CCc1ccc(C(F)(F)F)c(Cl)c1)C(=O)O; NPrPhe(4-CF3) = CCCN[C@@H](Cc1ccc(C(F)(F)F)cc1)C(=O)O; X50 = C=CCN([C@@H](Cc1ccc(C)cc1)C(=O)[*:2])[*:1]; NMeGly(cPent) = CN[C@H](C(=O)O)C1CCCC1; NMeD = CN[C@@H](CC(=O)O)C(=O)O; NMeL = CN[C@@H](CC(C)C)C(=O)O; Morpholide = C1CN(*)CCO1; Ac5c = NC1(C(=O)O)CCCC1; Aze = O=C(O)[C@@H]1CCN1; Sar = CNCC(=O)O

For test [1], the target named is GDP-bound NRAS wild-type protein (Homo sapiens, UniProt P01111). Description: Binding to NRAS by surface plasmon resonance (SPR), KD and KD ratio to KRAS. The gist of the method:
(§1)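 Captured GDP-RAS (~100–300 RU) was exposed to increasing compound concentrations, 75 s per step, in running buffer with 10 µM GDP, 10 mM MgCl2 and 4% DMSO at pH 7.4.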

A further test has as its target HRAS wild-type protein (Homo sapiens, UniProt P01112). Description: Binding to HRAS by surface plasmon resonance (SPR), KD and KD ratio to KRAS. The gist of the method: as §1
In test [2] the test system is human lung cancer strain NCI-H441. The format is cell-based. In outline: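 Step one: dispense the test compound in serial DMSO dilutions. Step three: add the reagent and measure […].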
[3] abbreviates: ratio of KD value for GDP-bound NRAS wild-type protein to KD value for KRAS (SPR).
Where [4] appears, read: ratio of KD value for HRAS wild-type protein to KD value for KRAS (SPR).
Where [5] appears, read: ratio of KD for GDP-bound NRAS wild-type protein to KD for KRAS.
Where [6] appears, read: ratio of KD for HRAS wild-type protein to KD for KRAS.
Setting [7] is: ratio of the KD value with respect to GDP-bound NRAS wild-type protein to the KD value with respect to KRAS.
Setting [8] is: ratio of the KD value with respect to HRAS wild-type protein to the KD value with respect to KRAS.

Sequence of GDP-bound NRAS wild-type protein (P01111 whole entry): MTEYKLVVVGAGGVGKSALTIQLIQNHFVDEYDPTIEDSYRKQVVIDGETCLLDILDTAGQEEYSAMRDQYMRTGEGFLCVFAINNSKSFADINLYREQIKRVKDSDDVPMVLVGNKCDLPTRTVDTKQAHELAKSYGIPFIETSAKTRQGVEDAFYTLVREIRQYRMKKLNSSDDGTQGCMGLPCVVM
Sequence of HRAS wild-type protein (P01112 whole entry): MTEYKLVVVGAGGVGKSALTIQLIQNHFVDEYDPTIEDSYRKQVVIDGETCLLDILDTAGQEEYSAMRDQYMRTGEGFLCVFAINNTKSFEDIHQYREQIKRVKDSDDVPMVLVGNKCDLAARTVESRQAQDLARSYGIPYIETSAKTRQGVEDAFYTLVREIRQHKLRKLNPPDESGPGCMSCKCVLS

With `CCC[C@H]1C(=O)N[C@@H]([C@@H](C)CC)C(=O)N(C)CC(=O)N(C)[C@H]2C/C=C\CCN(C2=O)[C@@H](Cc2ccc(C(F)(F)F)cc2)C(=O)N(C)CC(=O)N[C@@H](CCc2cc(F)c(C(F)(F)F)c(F)c2)C(=O)N2C[C@H](OCC)C[C@H]2C(=O)NC2(CC(F)(F)C2)C(=O)N(C)[C@@H](C2CCCC2)C(=O)N(C)[C@H](C(=O)N(C)CC)CC(=O)N1C` [PP1735], the “NRAS /KRAS” value in test [1] (setting [3]) was “AA (a compound having 20 or more is denoted as AA)”. In addition, on HRAS wild-type protein (setting [4]), the “HRAS /KRAS” value was “A (a compound having 10 or more and less than 20 is denoted as A)”. The IC50 (commonly the midpoint of a concentration-inhibition curve) in test [2] turned out to be 2.2 nM.
For `CCC[C@H]1C(=O)N[C@@H]([C@@H](C)CC)C(=O)N(C)CC(=O)N(C)[C@H]2C/C=C\CCN(C2=O)[C@@H](Cc2ccc(C(F)(F)F)cc2)C(=O)N(C)CC(=O)N[C@@H](CCc2cc(F)c(C(F)(F)F)c(F)c2)C(=O)N2C[C@H](OCC)C[C@H]2C(=O)NC2(CCC2)C(=O)N(C)[C@@H](C2CCCC2)C(=O)N(C)[C@H](C(=O)N(C)CC)CC(=O)N1C` [PP1304], the “NRAS /KRAS” value in test [1] (ratio of KD with respect to GDP-bound NRAS wild-type protein to KD with respect to KRAS) is “A (a compound having 10 or more and less than 20 is denoted as A)”. The “HRAS /KRAS” value on HRAS wild-type protein (ratio of KD with respect to HRAS wild-type protein to KD with respect to KRAS) was “A (a compound having 10 or more and less than 20 is denoted as A)”. In test [2], this molecule registered an IC50 of 8.8 nM.
Regarding `CCC[C@H]1C(=O)N[C@@H]([C@@H](C)CC)C(=O)N(C)CC(=O)N(C)[C@H]2C/C=C\CCN(C2=O)[C@@H](Cc2ccc(C)cc2)C(=O)N(C)CC(=O)N[C@@H](CCc2ccc(C(F)(F)F)c(OC)c2)C(=O)N2C[C@H](OCC)C[C@H]2C(=O)NC2(CC(C)(C)C2)C(=O)N(C)[C@@H](C2CCCC2)C(=O)N(C)[C@H](C(=O)N(C)C)CC(=O)N1C` [PP1892], the “NRAS /KRAS” value in test [1] (setting [3]) is “A (a compound having 10 or more and less than 20 is denoted as A)”. Further, the “HRAS /KRAS” value at HRAS wild-type protein (setting [4]) is “B (a compound having 3 or more and less than 10 is denoted as B)”. Besides, in test [2], the IC50 came to 4.8 nM.
In the case of `CCC[C@H]1C(=O)N[C@@H]([C@@H](C)CC)C(=O)N(C)CC(=O)N(C)[C@H]2C/C=C\CCN(C2=O)[C@@H](Cc2ccc(C(F)(F)F)cc2)C(=O)N(C)CC(=O)N[C@@H](CCc2ccc(Cl)c(OC)c2)C(=O)N2C[C@H](OCC)C[C@H]2C(=O)NC2(CC(C)(C)C2)C(=O)N(C)[C@@H](C2CCCC2)C(=O)N(C)[C@H](C(=O)N(C)C)CC(=O)N1C` [PP2788], the “NRAS /KRAS” value in test [1] (setting [5]) was “A (a compound having 10 or more and less than 20 is denoted as A)”. The “HRAS /KRAS” value at HRAS wild-type protein (setting [6]) is “A (a compound having 10 or more and less than 20 is denoted as A)”. For the same molecule, the IC50 in test [2] was 24.4 nM.
Turning to `CCO[C@@H]1C[C@H]2C(=O)NC3(CC(C)(C)C3)C(=O)N(C)[C@@H](C3CCCC3)C(=O)N3CCC[C@@H]3CC(=O)N(C)[C@@H](CC)C(=O)N[C@@H]([C@@H](C)CC)C(=O)N(C)CC(=O)N(C)[C@H]3C/C=C\CCN(C3=O)[C@@H](CC3CCCCC3)C(=O)N(C)CC(=O)N[C@@H](CCc3cc(F)c(C(F)(F)F)c(F)c3)C(=O)N2C1` [PP1620], the “NRAS /KRAS” value in test [1] (setting [3]) is “B (a compound having 3 or more and less than 10 is denoted as B)”. The “HRAS /KRAS” value on HRAS wild-type protein (setting [4]) was “B (a compound having 3 or more and less than 10 is denoted as B)”. The same molecule had an IC50 in test [2] of 170 nM.
For the molecule `CCO[C@@H]1C[C@H]2C(=O)NC3(CCC3)C(=O)N(C)[C@@H](C3CCCC3)C(=O)N(C)[C@H](C(=O)N3CCOCC3)CC(=O)N(C)[C@@H](CC3CC3)C(=O)N[C@@H]([C@@H](C)CC)C(=O)N(C)CC(=O)N(C)[C@H]3C/C=C\CCN(C3=O)[C@@H](Cc3ccc(F)cc3)C(=O)N(C)CC(=O)N[C@@H](CCc3cc(F)c(C(F)(F)F)c(F)c3)C(=O)N2C1` [PP1496], in test [1] (setting [3]), the “NRAS /KRAS” value is “A (a compound having 10 or more and less than 20 is denoted as A)”. In addition, on HRAS wild-type protein (setting [4]), the “HRAS /KRAS” value is “B (a compound having 3 or more and less than 10 is denoted as B)”. The IC50 in test [2] was 36.7 nM.
Consider `C=CCN1C(=O)CN(C)C(=O)CN(C)C(=O)[C@H]([C@@H](C)CC)NC(=O)[C@H](CC(C)C)N(C)C(=O)C[C@@H](C(=O)N2CCOCC2)N(C)C(=O)[C@H](C2CCCC2)N(C)C(=O)C2(CCCC2)NC(=O)[C@@H]2CCCN2C(=O)[C@H](CCc2ccc(C(F)(F)F)c(Cl)c2)NC(=O)CN(C)C(=O)[C@@H]1Cc1ccc(C)cc1` [PP0100] ([NMeL]I[Sar][Sar][X50][Sar][hPhe(3-Cl-4-CF3)]P[Ac5c][NMeGly(cPent)][NMeD]-Morpholide; lactam N-11), for which the “NRAS /KRAS” value in test [1] (setting [5]) is “B (a compound having 3 or more and less than 10 is denoted as B)”. The “HRAS /KRAS” value at HRAS wild-type protein (setting [6]) is “C (A compound having a KD ratio of 0.1 or more and less than 3 is denoted as C)”. The molecule also returned an IC50 in test [2] of 24.3 nM.
For `CCCN1C(=O)CN(C)C(=O)[C@@H]2CCN2C(=O)[C@H]([C@@H](C)CC)NC(=O)[C@H](CC(C)C)N(C)C(=O)C[C@@H](C(=O)N2CCOCC2)N(C)C(=O)[C@H](C2CCCC2)N(C)C(=O)C2(CCCC2)NC(=O)[C@@H]2CCCN2C(=O)[C@H](CCc2cc(F)c(C(F)(F)F)c(F)c2)NC(=O)CN(C)C(=O)[C@@H]1Cc1ccc(C(F)(F)F)cc1` [PP0770] ([NMeL]I[Aze][Sar][NPrPhe(4-CF3)][Sar][hPhe(3,5-F2-4-CF3)]P[Ac5c][NMeGly(cPent)][NMeD]-Morpholide; lactam N-11), the “NRAS /KRAS” value in test [1] (setting [5]) was “B (a compound having 3 or more and less than 10 is denoted as B)”. Also, the “HRAS /KRAS” value at HRAS wild-type protein (setting [6]) was “B (a compound having 3 or more and less than 10 is denoted as B)”. The same molecule showed an IC50 in test [2] of 62.2 nM.
For `CC[C@H](C)[C@@H]1NC(=O)[C@H](CC(C)C)N(C)C(=O)C[C@@H](C(=O)N2CCOCC2)N(C)C(=O)[C@H](C2CCCC2)N(C)C(=O)C2(CC(F)(F)C2)NC(=O)[C@@H]2CCCN2C(=O)[C@H](CCc2cc(F)c(C(F)(F)F)c(F)c2)NC(=O)CN(C)C(=O)[C@H](Cc2ccc(C(F)(F)F)cc2)N2CCCCC[C@@H](C2=O)N(C)C(=O)CN(C)C1=O` [PP0499], the “NRAS /KRAS” value in test [1] (setting [7]) was “B (a compound having 3 or more and less than 10 is denoted as B)”. Also, the “HRAS /KRAS” value at HRAS wild-type protein (setting [8]) is “B (a compound having 3 or more and less than 10 is denoted as B)”. The same molecule returned an IC50 in test [2] of 44.9 nM.
For `CC[C@H](C)[C@@H]1NC(=O)[C@H](CC(C)C)N(C)C(=O)C[C@@H](C(=O)N(C)C)N(C)C(=O)[C@H](C2CCCC2)N(C)C(=O)C2(CCCC2)NC(=O)[C@@H]2CCCN2C(=O)[C@H](CCc2ccc(C(F)(F)F)c(Cl)c2)NC(=O)CN(C)C(=O)[C@H](Cc2ccc(C)cc2)N2CC/C=C(/C)C[C@@H](C2=O)N(C)C(=O)CN(C)C1=O` [PP0616], the “NRAS /KRAS” value in test [1] (setting [7]) is “B (a compound having 3 or more and less than 10 is denoted as B)”. Moreover, the “HRAS /KRAS” value at HRAS wild-type protein (setting [8]) is “B (a compound having 3 or more and less than 10 is denoted as B)”. The molecule further yielded an IC50 in test [2] of 73.8 nM.
On to `CCO[C@@H]1C[C@H]2C(=O)NC3(CCC3)C(=O)N(C)[C@@H](C3CCCC3)C(=O)N(C)[C@H](C(=O)N(C)C)CC(=O)N(C)[C@@H](CCC(=O)N(C)C)C(=O)N[C@@H]([C@@H](C)CC)C(=O)N(C)CC(=O)N(C)[C@H]3C/C=C\CCN(C3=O)[C@@H](Cc3ccc(C(F)(F)F)cc3)C(=O)N(C)CC(=O)N[C@@H](CCc3cc(F)c(C(F)(F)F)c(F)c3)C(=O)N2C1` [PP1122], for which the “NRAS /KRAS” value in test [1] (setting [5]) is “A (a compound having 10 or more and less than 20 is denoted as A)”. Further, the “HRAS /KRAS” value at HRAS wild-type protein (setting [6]) was “B (a compound having 3 or more and less than 10 is denoted as B)”. In addition, in test [2], it took 275 nM to reach half-maximal inhibition (IC50).
